# Experimental data from PubChem BioAssay AID179 (DTP/NCI, 2004).
# Values joined by “and” are separate entries in the source; they are usually repeats but may differ in a detail not shown here. Identical values can stand only once. Active and inactive are the calls of the source.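 Rule for the calls: active = compounds giving half or more protection of infected cells from virus-caused growth loss, again on retest; inactive = the rest.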
# Test system: CEM cells HIV-1 protection, formazan growth assay
# Assay: NCI AIDS Antiviral Assay
# Settings: for IC50: measured here: growth of uninfected CEM cells
# Outline: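 Soluble formazan readout of cell growth; CEM cells ± HIV-1; 5 drug concs. ≥50% protection → retest; ≥50% again = moderately active; reproducible 100% = confirmed active.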
SMILES,EC50,IC50,outcome
Cc1cccc(C2=NC(c3ccccc3)C(c3ccccc3)N=C2c2cccc(C)n2)n1 (centres undefined),> 16.2 µM,> 16.2 µM,–
Cc1cn(C2CC(N)C(CN)O2)c(=O)[nH]c1=O (centres undefined),> 200 µM,> 200 µM,–
COc1nc2ncc([C@@H](OC(C)=O)[C@@H](COC(C)=O)OC(C)=O)nc2c(=O)n1C,> 200 µM,> 200 µM,–
C1=C\C=C\C2OC2/C=C/1 (centres undefined),> 224 µM,112 µM,–
CN(CCO)CC(=O)CC(O)(C(F)(F)F)C(F)(F)F,> 200 µM,39.8 µM,–
COc1ccc(Nc2c3sc4cc(OC)ccc4nc-3c3ccccc3c2=O)cc1,> 100 µM,> 100 µM,–
CC1(C)N/C(=C\C=O)C(C)(C)N1O,> 200 µM,> 200 µM,–
COC(=O)CC(C(C(C)=O)C(=O)OCc1ccccc1)N1C(=O)OCC1c1ccccc1 (centres undefined),> 100 µM,95.5 µM,–
NC(N)=NCCCC(NC(=O)OCCCCCCn1ccc(N)nc1=O)C(=O)O (centres undefined),> 200 µM,> 200 µM,–
C[C@@H]1[C@@H](C)C(c2ccccc2)O[Si]1(C(C)(C)C)C(C)(C)C (some centres undefined),> 100 µM,56.2 µM,–
CCCNC(=S)N/N=C(\C)c1ccc(S(=O)(=O)N(C)c2ccccc2)cc1,> 200 µM,> 200 µM,–
CN(C)CCC(O)(Cc1ccccc1)c1cccc(Cl)c1 (centres undefined),> 200 µM,87.1 µM,–
CCC12CCCN(Cc3ccccc3)C1c1c(n(C)c3ccccc13)CC2 (centres undefined),> 66.1 µM,> 66.1 µM,–
CNc1cc(OCc2ccccc2)c(OC)cc1C(=O)N1CCC[C@H]1CO,> 200 µM,42.7 µM,–
COc1cc(C2(C#N)CCN(C)CC2)cc(OC)c1OC,> 871 µM,437 µM,–
O=[N+]([O-])c1ccc(C2=NOC(c3ccccc3)N2C23CC4CC(CC(C4)C2)C3)cc1 (centres undefined),> 200 µM,107 µM,–
O=C(Nc1ccc(C2=NCCN2)c(O)c1)c1ccc(C(=O)Nc2ccc(C3=NCCN3)c(O)c2)cc1,95.5 µM,> 200 µM,–
O=C1C=CC(=O)c2c(-c3ccccc3[N+](=O)[O-])cc(Cl)nc21,–,–,inactive
O=S1(=O)NNC(=NCc2ccc(F)cc2)c2ccccc21,–,–,inactive
CNC(=O)C(C)NC(=O)C(Cc1ccccc1)NC(=O)c1ccccc1 (centres undefined),> 200 µM,> 200 µM,–
COC(=O)[C@@H]1N2C(=S)N(c3ccccc3)C(=O)[C@H]2SC1(C)C,> 200 µM,> 200 µM,–
CC1NC(=O)c2cc(=O)n(C)c(O)c21 (centres undefined),> 209 µM,> 209 µM,–
CCCC(=O)C(C)=C(OC)OC,–,–,inactive

SMILES,EC50,IC50,outcome
CC#CCCN(CC#N)Cc1ccccc1,> 200 µM,> 200 µM,–
N#CCCN(CCN(CCC#N)C(=O)Nc1ccccc1)C(=O)Nc1ccccc1,> 200 µM,> 200 µM,–
CC(=O)OCCn1c([N+](=O)[O-])cnc1/C=[N+](/[O-])CCO,–,–,inactive
N#CC1(c2ccccc2)CCN(Cc2ccccc2)CC1,> 115 µM,60.3 µM,–
Nc1nnc(N)c2[nH]cnc12,> 200 µM,> 200 µM,–
Cc1ccc(S(=O)(=O)N2CC3(CN(S(=O)(=O)c4ccc(C)cc4)CC4(C2)OCCO4)OCCO3)cc1,> 200 µM,85.1 µM,–
O=c1cc/c(=N/O)c(=O)/c1=N\O,17.4 µM,151 µM,–
NC1=NC(=O)C(CC(=O)c2ccc(Cl)cc2)S1 (centres undefined),> 200 µM,> 200 µM,–
Cc1nc(Nc2ccc(Cl)c(Cl)c2)sc1C(=O)/C=C/c1ccc2c(c1)OCO2,> 200 µM,13.5 µM,–
C[C@@H]1c2ccc3c(c2C2(O)C[C@H]4CCC1N2C4)CC1[C@H]3CC(=O)C2C[C@@H](O)CC[C@@]21C (some centres undefined),> 155 µM,> 155 µM,–
CCCCOP(=S)(OCCCC)OCCCC,–,–,inactive
CCOC(=O)N/N=C/C1=NN(C(=O)OCC)S(=O)C1C (centres undefined),> 200 µM,> 200 µM,–
Cn1nc(NC(=O)c2cc(N)nn2C)cc1C(=O)Nc1ccc2cc(S(=O)(=O)O)cc(S(=O)(=O)O)c2c1,> 200 µM,> 200 µM,–
COc1ccc(-c2cc(-c3ccc(Cl)cc3)n(C3OC(CO)C(O)C(O)C3O)c(=S)c2C#N)cc1 (centres undefined),> 200 µM,7.76 µM,–
c1scc2c1COCCOCCOCCOCCOCCOC2,> 724 µM,646 µM,–
CC1=Nc2c([nH]c(=S)[nH]c2=O)NC(c2ccc(Cl)c(Cl)c2)C1 (centres undefined),> 7.76 µM,> 7.76 µM,–
Cc1cccc2c1Oc1cc(Cl)ccc1C2NC(=O)CCN1CCOCC1 (centres undefined),> 200 µM,> 200 µM,–
C1CSCCSCCSCCSCCS1,> 17.4 µM,> 17.4 µM,–
CN1C(=O)C2(C#N)C3(CCCC3)C2(C#N)C1=O (centres undefined),> 43.7 µM,> 43.7 µM,–
O=C(O)CCN(CCC(=O)O)CCN(CCC(=O)O)CCC(=O)O,> 589 µM,> 589 µM,–
CN(C)CC1CCC/C(=C\c2ccc(OC(=O)/C=C/c3ccc(Cl)c(Cl)c3)cc2)C1=O (centres undefined),> 100 µM,1.45 µM,–
C=C(C)CCC1CCCCC(CN(C)C)C1=O (centres undefined),> 200 µM,110 µM,–
COc1c(C)c(C/C=C(\C)CCCC(C)CCCC(C)CCCC(C)C)c(OC)c2ccccc12 (centres undefined),> 200 µM,> 200 µM,–

SMILES,EC50,IC50,outcome
CC(=O)N1c2ccccc2C2=NN(C)C(=N)SC21 (centres undefined),–,–,inactive
CC(C)CCCC(C)N (centres undefined),> 200 µM,> 200 µM,–
COC(=O)/C(=C/c1c[nH]c2ccccc12)NC=O,> 200 µM,> 200 µM,–
O=C1COC(c2ccccc2)C(c2ccccc2)(c2ccccc2)O1 (centres undefined),> 15.8 µM,> 15.8 µM,–
O=C(c1ccccc1)c1cc2c([nH]c1=O)CCCCC2,> 200 µM,135 µM,–
COc1cccc2c1OC1(C=C2)Oc2ccccc2C(=O)N1C (centres undefined),> 200 µM,30.9 µM,–
COS(=O)(=O)c1c(N)n(C)c(=O)n(C)c1=O,> 200 µM,66.1 µM,–
CS(=O)(=O)Nc1ccc2ccccc2c1-c1c(NS(C)(=O)=O)ccc2ccccc12,> 50.1 µM,47.9 µM,–
C/C=C1/[C@@H]2C[C@H]3C4=Nc5ccccc5C4(C4[C@@H](O)ON3[C@@H]14)[C@@H]2C(=O)OC,> 200 µM,> 200 µM,–
CCCC[P+](c1ccccc1)(c1ccccc1)c1ccccc1,> 200 µM,2.57 µM,–
Cc1ccc(C)c(NC(=O)C(=O)C2C(=O)C3=C(CC2(C)C)Nc2ccccc2S3)c1 (centres undefined),> 85.1 µM,> 85.1 µM,–
Cc1cn(CC2=NCC(C)N2)c(=O)[nH]c1=O (centres undefined),> 200 µM,> 200 µM,–
COc1cc(-c2ccccc2)cn2c1nc1ccccc12,> 200 µM,11.5 µM,–
Cc1ccc(Cl)cc1N=NC(=O)NNc1cc(Cl)ccc1C,> 200 µM,25.1 µM,–
CCOP(=O)(Cc1nc(C#N)c(N)o1)OCC,> 200 µM,> 200 µM,–
O/N=C1/CCCC/C1=C\c1ccc(Cl)c(Cl)c1,–,–,inactive
CC(=O)O[C@H]1CCC2[C@@H]3CCC4Nc5[nH]ncc5C[C@]4(C)C3CC[C@@]21C (some centres undefined),–,–,inactive
CCn1c(O)c(C=Nc2ccccc2)s/c1=N/Nc1nc(-c2ccccc2)cs1,> 200 µM,24.5 µM,–
O=[N+]([O-])c1ccc2nc(-c3ccccn3)c(-c3ccccn3)nc2c1,> 200 µM,> 200 µM,–
CC(C)C(O)C(=O)C(Sc1ccccc1)C(C)C (centres undefined),> 355 µM,240 µM,–
COc1cc2c(cc1OC)C(C(=O)c1cccc(OC)c1OC)C(=O)N(C)CC2 (centres undefined),> 126 µM,> 126 µM,–
Cc1c2ccc(Cl)cc2nc2ccc(OCCNC(=O)[C@@H](N)CCCN=C(N)N)cc12,> 200 µM,30.9 µM,–
COc1ccc(OC)c(N=Nc2cc(OC)c(N=Nc3c(O)c4ccccc4[nH]c3=O)cc2Cc2ccccc2C(=O)O)c1,> 50.1 µM,31.6 µM,–

SMILES,EC50,IC50,outcome
Sc1cccc2c(S)cccc12,> 200 µM,> 200 µM,–
COCC1OCCN1C (centres undefined),> 200 µM,> 200 µM,–
CCO/N=C(/N)c1ncn(Cc2ccccc2)c1NCC(OCC)OCC,> 661 µM,339 µM,–
CCC(C)C(=O)O[C@H]1[C@H](OC(C)=O)[C@H](OC(C)=O)[C@@]2(COC(C)=O)C(OC(C)=O)C(=O)[C@@H]3[C@@H](OC(C)=O)[C@]2(O[C@@]3(C)COC(=O)c2ccccc2)[C@@]1(C)O (some centres undefined),–,–,inactive
CC1CCCC(C)C(Sc2ccccc2)=C1Sc1ccccc1 (centres undefined),–,–,inactive
CCOC(=O)c1c2cccccc-2nc1Nc1cccc2c(C)ccnc12,–,–,inactive
O=S1(=O)C(c2ccccc2)=C(O)c2cc3ccccc3nc21,–,–,inactive
O=NNc1nc(-c2ccccn2)nc2ccccc12,> 200 µM,7.94 µM,–
NC(=O)/N=C1/CCC2C3CCCC2C13,–,–,inactive
CCN(CC)c1nc(NC2CCCCC2)c2nc(N(CC)CC)nc(NC3CCCCC3)c2n1,> 11.2 µM,0.537 µM,–
COC(=O)C1(Cc2ccc3c(c2)CCC3)Cc2ccccc2C1,> 200 µM,35.5 µM,–
CN=C(NC)NCc1ccccc1,> 200 µM,178 µM,–
CC(C)=CCSC1CC2C(CC1(C)O)C2(C)C (centres undefined),> 200 µM,110 µM and 112 µM,–
O=C1C2c3[nH]c4ccccc4c3C3CCCC3C2C(=O)N1c1ccccc1 (centres undefined),–,–,inactive
COc1ccc(OC)c(-n2nnc3ccccc3c2=O)c1,> 302 µM,174 µM,–
COc1cc2c(cc1OC)C(=O)/C(=C/c1ccccc1)CC2,> 200 µM,117 µM,–
COc1ccc(-c2c(O)c3c(OC)cc(OC)cc3oc2=O)cc1,> 200 µM,158 µM,–
CCCCCCCCCCCCCCCCCCOP(=O)([O-])OC1CC[N+](C)(C)CC1,> 204 µM,1.91 µM,–
O=Cc1cn(S(=O)(=O)c2ccccc2)c2ccccc12,–,–,inactive
CN(C)C(=S)OC(Cn1cncn1)c1ccc(Cl)cc1Cl (centres undefined),> 513 µM,427 µM,–
Oc1ccc(-c2nc(-c3cccnc3)c(-c3ccc(Cl)cc3)[nH]2)cc1O,> 200 µM,13.8 µM,–
CCNC(=O)OCCCCC=C(c1cc(Cl)c(OC)c(C(=O)OC)c1)c1cc(Cl)c(OC)c(C(=O)OC)c1,> 200 µM,14.5 µM,–
C[C@]12CCC3[C@@H](CC[C@@H]4c5nonc5CC[C@]34C)C1CC[C@@H]2O (some centres undefined),> 214 µM,> 214 µM,–
